Measured values taken from PMC5746379 (2017).

Tests used:
[1] = test system: P1 (DNA, G4) GGGCGGTGGGAGGGGGGTGGTGGG; assay: CD melting; conditions: 1:3 ratio P1-M2; Tm ~79 °C with and without M2; buffer not stated
[2] = test system: P2 (DNA, G4) GGGCGGGGAGGGGGG; assay: fluorescence titration of M2 (emission shift Δλ); conditions: excitation 345 nm; buffer not stated
[3] = test system: P2 (DNA, G4) GGGCGGGGAGGGGGG; assay: WaterLOGSY 1H NMR; conditions: 298 K; water with 10% D2O
[4] = test system: P1 (DNA, G4) GGGCGGTGGGAGGGGGGTGGTGGG; assay: absorption, fluorescence titration, WaterLOGSY NMR; conditions: buffer and highest concentration not stated

CN(CCC#N)c1ccc(C=NCCCN=Cc2ccc(N(C)CCC#N)cc2)cc1
binding [1]: no
KD [2]: 13.2 µM
binding [3]: yes
binding [4]: no
